The source of these data is ChEMBL document CHEMBL4152382, “Discovery of Tarantula Venom-Derived NaV1.7-Inhibitory JzTx-V Peptide 5-Br-Trp24 Analogue AM-6120 with Systemic Block of Histamine-Induced Pruritis” (J Med Chem, 2018).

The structures appear in SMILES notation. pIC50: −log10 of the molar value. A value given as a limit tells only on which side of the number the result lay.

Assay [1] has as its target Sodium channel protein type 4 subunit alpha (Homo sapiens, UniProt P35499). Kind of assay: Inhibition of human Nav1.4 expressed in HEK293 cells at holding potential of -125 mV […] by patchxpress-based electrophysiology assay. The format is cell-based.
The target in assay [2] is Sodium channel protein type 9 subunit alpha (Homo sapiens, UniProt Q15858). The assay is described as follows: Inhibition of human Nav1.7 expressed in HEK293 cells at holding potential of -125 mV […] by patchxpress-based electrophysiology assay. Type of assay: cell-based.
Sequence of Sodium channel protein type 9 subunit alpha (Q15858 whole entry): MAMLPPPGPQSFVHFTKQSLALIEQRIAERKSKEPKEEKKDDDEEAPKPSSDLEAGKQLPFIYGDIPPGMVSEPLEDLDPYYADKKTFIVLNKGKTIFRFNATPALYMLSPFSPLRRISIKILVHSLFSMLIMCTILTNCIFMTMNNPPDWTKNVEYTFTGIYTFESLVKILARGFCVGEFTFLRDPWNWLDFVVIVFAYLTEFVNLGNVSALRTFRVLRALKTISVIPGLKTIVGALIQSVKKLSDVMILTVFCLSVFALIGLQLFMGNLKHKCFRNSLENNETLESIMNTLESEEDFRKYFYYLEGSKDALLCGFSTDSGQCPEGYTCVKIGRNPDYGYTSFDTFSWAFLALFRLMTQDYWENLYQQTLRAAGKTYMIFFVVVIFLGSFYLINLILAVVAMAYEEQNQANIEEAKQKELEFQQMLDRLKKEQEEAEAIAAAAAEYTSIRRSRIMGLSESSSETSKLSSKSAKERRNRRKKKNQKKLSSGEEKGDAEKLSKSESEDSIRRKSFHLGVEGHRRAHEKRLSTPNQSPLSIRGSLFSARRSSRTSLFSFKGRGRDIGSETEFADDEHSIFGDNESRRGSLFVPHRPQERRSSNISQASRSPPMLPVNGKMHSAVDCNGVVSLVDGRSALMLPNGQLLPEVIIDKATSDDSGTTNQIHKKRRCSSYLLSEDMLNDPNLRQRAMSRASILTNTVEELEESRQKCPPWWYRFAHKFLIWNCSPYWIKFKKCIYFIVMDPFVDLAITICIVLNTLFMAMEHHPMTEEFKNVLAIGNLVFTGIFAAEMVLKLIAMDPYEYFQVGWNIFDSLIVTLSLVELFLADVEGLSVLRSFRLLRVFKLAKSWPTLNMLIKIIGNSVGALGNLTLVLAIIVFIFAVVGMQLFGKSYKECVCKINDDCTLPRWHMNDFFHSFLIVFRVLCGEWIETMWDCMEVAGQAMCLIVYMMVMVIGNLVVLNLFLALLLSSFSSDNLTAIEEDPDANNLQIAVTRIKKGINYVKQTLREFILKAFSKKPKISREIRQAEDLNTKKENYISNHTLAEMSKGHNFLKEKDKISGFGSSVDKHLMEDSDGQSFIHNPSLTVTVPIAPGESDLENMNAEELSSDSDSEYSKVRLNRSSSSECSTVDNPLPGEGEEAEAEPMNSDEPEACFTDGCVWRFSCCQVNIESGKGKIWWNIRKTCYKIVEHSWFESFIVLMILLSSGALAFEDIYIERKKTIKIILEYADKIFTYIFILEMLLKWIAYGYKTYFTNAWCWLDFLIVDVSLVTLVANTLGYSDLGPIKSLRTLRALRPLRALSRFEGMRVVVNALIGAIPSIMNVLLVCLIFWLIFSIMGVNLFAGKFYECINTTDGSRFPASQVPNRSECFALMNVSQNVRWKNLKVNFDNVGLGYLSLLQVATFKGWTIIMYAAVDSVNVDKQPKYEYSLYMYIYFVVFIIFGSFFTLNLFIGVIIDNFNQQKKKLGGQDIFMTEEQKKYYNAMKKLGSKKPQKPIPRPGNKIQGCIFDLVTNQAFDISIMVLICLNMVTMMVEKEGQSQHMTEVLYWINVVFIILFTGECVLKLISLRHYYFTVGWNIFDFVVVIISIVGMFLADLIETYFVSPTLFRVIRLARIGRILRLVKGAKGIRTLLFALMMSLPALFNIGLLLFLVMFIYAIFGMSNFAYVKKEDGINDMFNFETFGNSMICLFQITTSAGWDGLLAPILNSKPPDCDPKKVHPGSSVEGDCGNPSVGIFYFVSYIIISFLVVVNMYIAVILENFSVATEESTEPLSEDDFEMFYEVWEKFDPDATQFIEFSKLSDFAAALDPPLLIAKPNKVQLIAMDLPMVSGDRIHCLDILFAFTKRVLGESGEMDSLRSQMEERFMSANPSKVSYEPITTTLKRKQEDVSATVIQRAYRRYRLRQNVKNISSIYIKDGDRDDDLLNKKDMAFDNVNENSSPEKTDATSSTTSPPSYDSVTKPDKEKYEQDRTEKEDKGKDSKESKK

Sequence of Sodium channel protein type 4 subunit alpha (P35499 whole entry): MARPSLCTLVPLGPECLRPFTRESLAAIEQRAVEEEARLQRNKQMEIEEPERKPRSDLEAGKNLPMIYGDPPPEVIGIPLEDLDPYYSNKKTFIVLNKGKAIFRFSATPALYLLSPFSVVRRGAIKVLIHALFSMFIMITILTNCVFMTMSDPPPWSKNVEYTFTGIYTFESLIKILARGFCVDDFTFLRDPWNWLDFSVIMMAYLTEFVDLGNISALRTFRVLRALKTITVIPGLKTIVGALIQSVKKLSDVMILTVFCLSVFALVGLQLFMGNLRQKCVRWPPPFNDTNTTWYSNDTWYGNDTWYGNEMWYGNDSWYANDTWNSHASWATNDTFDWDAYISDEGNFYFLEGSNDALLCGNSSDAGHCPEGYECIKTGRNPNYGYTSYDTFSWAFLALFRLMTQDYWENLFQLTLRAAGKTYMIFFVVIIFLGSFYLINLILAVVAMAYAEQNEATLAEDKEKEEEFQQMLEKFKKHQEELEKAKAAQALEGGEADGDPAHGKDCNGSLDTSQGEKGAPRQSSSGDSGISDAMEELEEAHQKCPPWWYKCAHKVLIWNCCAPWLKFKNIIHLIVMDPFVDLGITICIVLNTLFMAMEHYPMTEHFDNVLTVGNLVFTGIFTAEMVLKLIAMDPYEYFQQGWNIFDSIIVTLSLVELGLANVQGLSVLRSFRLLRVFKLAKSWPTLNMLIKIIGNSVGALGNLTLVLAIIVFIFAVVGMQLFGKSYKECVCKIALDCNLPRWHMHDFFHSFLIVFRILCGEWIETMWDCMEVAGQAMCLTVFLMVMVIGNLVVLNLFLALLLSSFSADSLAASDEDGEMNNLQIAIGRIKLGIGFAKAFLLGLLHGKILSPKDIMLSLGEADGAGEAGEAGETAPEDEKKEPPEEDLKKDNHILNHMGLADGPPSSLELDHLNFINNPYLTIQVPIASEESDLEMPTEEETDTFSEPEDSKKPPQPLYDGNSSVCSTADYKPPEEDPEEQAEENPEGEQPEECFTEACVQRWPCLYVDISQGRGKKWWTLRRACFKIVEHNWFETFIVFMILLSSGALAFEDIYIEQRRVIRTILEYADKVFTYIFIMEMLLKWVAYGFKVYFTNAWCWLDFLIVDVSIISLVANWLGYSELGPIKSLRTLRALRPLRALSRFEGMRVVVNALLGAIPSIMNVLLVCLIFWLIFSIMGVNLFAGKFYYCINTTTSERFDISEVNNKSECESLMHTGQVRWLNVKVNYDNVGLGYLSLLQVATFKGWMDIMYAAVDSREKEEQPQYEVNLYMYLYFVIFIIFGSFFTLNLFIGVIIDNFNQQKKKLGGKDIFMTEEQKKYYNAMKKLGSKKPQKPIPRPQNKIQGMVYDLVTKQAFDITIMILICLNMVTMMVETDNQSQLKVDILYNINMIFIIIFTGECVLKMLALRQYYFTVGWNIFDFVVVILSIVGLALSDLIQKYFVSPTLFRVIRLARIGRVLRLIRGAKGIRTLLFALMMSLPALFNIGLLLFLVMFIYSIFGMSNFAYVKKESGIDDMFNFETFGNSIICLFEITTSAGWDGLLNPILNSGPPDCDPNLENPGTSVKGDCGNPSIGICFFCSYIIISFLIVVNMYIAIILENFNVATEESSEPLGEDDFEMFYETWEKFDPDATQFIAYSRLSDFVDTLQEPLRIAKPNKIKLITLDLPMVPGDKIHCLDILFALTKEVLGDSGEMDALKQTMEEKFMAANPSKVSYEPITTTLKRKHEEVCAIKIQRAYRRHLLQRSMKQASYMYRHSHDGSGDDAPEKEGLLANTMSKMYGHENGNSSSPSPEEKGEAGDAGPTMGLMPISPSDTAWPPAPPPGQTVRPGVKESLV

On to `C#CC[C@H](N)C(=O)N[C@@H](Cc1ccc(O)cc1)C(=O)N[C@H]1CSSC[C@@H]2NC(=O)[C@@H]3CSSC[C@@H](C(=O)N[C@@H](CCCNC(=N)N)C(=O)N[C@@H](CCCCN)C(=O)N[C@@H](CCC(=O)O)C(=O)N[C@@H](Cc4c[nH]c5ccccc45)C(N)=O)NC(=O)[C@H](Cc4c[nH]c5ccccc45)NC(=O)[C@H](CC(C)C)NC(=O)[C@H](CCCCN)NC(=O)[C@H](CSSC[C@H](NC(=O)[C@H]([C@@H](C)O)NC(=O)[C@H](Cc4c[nH]c5ccccc45)NC(=O)[C@H](CCCC)NC(=O)[C@H](Cc4c[nH]c5ccccc45)NC(=O)[C@H](CCCCN)NC(=O)[C@H](CCC(N)=O)NC1=O)C(=O)N[C@@H](CC(=O)O)C(=O)N[C@@H](CO)C(=O)N[C@@H](CCCCN)C(=O)N[C@@H](CCCNC(=N)N)C(=O)N[C@@H](C)C(=O)N3)NC(=O)[C@H](CCCNC(=N)N)NC(=O)[C@H](CC(C)C)NC(=O)CNC(=O)[C@H](CCC(=O)O)NC2=O`, for which the pIC50 in assay [1] was 7.04; in assay [2] it was 9.70. Consider `C#CC[C@H](N)C(=O)N[C@@H](Cc1ccc(O)cc1)C(=O)N[C@H]1CSSC[C@@H]2NC(=O)[C@@H]3CSSC[C@@H](C(=O)N[C@@H](CCCNC(=N)N)C(=O)N[C@@H](CCCCN)C(=O)N[C@@H](CCC(=O)O)C(=O)N[C@@H](Cc4ccccc4)C(N)=O)NC(=O)[C@H](Cc4c[nH]c5ccccc45)NC(=O)[C@H](CC(C)C)NC(=O)[C@H](CCCCN)NC(=O)[C@H](CSSC[C@H](NC(=O)[C@H]([C@@H](C)O)NC(=O)[C@H](Cc4c[nH]c5ccccc45)NC(=O)[C@H](CCCC)NC(=O)[C@H](Cc4c[nH]c5ccccc45)NC(=O)[C@H](CCCCN)NC(=O)[C@H](CCC(N)=O)NC1=O)C(=O)N[C@@H](CC(=O)O)C(=O)N[C@@H](CO)C(=O)N[C@@H](CCCCN)C(=O)N[C@@H](CCCNC(=N)N)C(=O)N[C@@H](C)C(=O)N3)NC(=O)[C@H](CCCNC(=N)N)NC(=O)[C@H](CC(C)C)NC(=O)CNC(=O)[C@H](CCC(=O)O)NC2=O`, for which the pIC50 is 6.79 in assay [1] and 9.70 in assay [2]. Turning to `C#CC[C@H](NC(=O)[C@@H](N)CCC(=O)O)C(=O)N[C@H]1CSSC[C@@H]2NC(=O)[C@@H]3CSSC[C@@H](C(=O)N[C@@H](CCCNC(=N)N)C(=O)N[C@@H](CCCCN)C(=O)N[C@@H](CCC(=O)O)C(=O)N[C@H](C(N)=O)[C@@H](C)CC)NC(=O)[C@H](Cc4c[nH]c5ccc(Br)cc45)NC(=O)[C@H](CC(C)C)NC(=O)[C@H](CCCCN)NC(=O)[C@H](CSSC[C@H](NC(=O)[C@H]([C@@H](C)O)NC(=O)[C@H](Cc4c[nH]c5ccccc45)NC(=O)[C@H](CCCC)NC(=O)[C@H](Cc4c[nH]c5ccccc45)NC(=O)[C@H](CCCCN)NC(=O)[C@H](CCC(N)=O)NC1=O)C(=O)N[C@@H](CC(=O)O)C(=O)N[C@@H](CO)C(=O)N[C@@H](CCCCN)C(=O)N[C@@H](CCCNC(=N)N)C(=O)N[C@@H](CCC(=O)O)C(=O)N3)NC(=O)[C@H](CCCNC(=N)N)NC(=O)[C@H](CC(C)C)NC(=O)CNC(=O)[C@H](CCC(=O)O)NC2=O`, the results for the pIC50 in assay [1] and in assay [2] were 6.74 and 8.89, respectively.

In the case of `C#CC[C@H](N)C(=O)N[C@@H](Cc1ccc(O)cc1)C(=O)N[C@H]1CSSC[C@@H]2NC(=O)[C@@H]3CSSC[C@@H](C(=O)N[C@@H](CCCNC(=N)N)C(=O)N[C@@H](CCCCN)C(=O)N[C@@H](CCC(=O)O)C(=O)N[C@H](C(N)=O)[C@@H](C)CC)NC(=O)[C@H](Cc4c[nH]c5ccc(Br)cc45)NC(=O)[C@H](C4CCCCC4)NC(=O)[C@H](CCCCN)NC(=O)[C@H](CSSC[C@H](NC(=O)[C@H]([C@@H](C)O)NC(=O)[C@H](Cc4c[nH]c5ccccc45)NC(=O)[C@H](CCCC)NC(=O)[C@H](Cc4c[nH]c5ccccc45)NC(=O)[C@H](CCCCN)NC(=O)[C@H](CCC(N)=O)NC1=O)C(=O)N[C@@H](CC(=O)O)C(=O)N[C@@H](CO)C(=O)N[C@@H](CCCCN)C(=O)N[C@@H](CCCNC(=N)N)C(=O)N[C@@H](C)C(=O)N3)NC(=O)[C@H](CCCNC(=N)N)NC(=O)[C@H](CC(C)C)NC(=O)CNC(=O)[C@H](CCC(=O)O)NC2=O`, the pIC50 in assay [2] was 7.71. `C#CC[C@H](N)C(=O)N[C@@H](Cc1ccc(O)cc1)C(=O)N[C@H]1CSSC[C@@H]2NC(=O)[C@@H]3CSSC[C@@H](C(=O)N[C@@H](CCCNC(=N)N)C(=O)N[C@@H](CCCCN)C(=O)N[C@@H](CCC(=O)O)C(=O)N[C@H](C(N)=O)[C@@H](C)CC)NC(=O)[C@H](Cc4c[nH]c5ccccc45)NC(=O)[C@H]([C@@H](C)CC)NC(=O)[C@H](CCCCN)NC(=O)[C@H](CSSC[C@H](NC(=O)[C@H]([C@@H](C)O)NC(=O)[C@H](Cc4c[nH]c5ccccc45)NC(=O)[C@H](CCCC)NC(=O)[C@H](Cc4c[nH]c5ccccc45)NC(=O)[C@H](CCCCN)NC(=O)[C@H](CCC(N)=O)NC1=O)C(=O)N[C@@H](CC(=O)O)C(=O)N[C@@H](CO)C(=O)N[C@@H](CCCCN)C(=O)N[C@@H](CCCNC(=N)N)C(=O)N[C@@H](C)C(=O)N3)NC(=O)[C@H](CCCNC(=N)N)NC(=O)[C@H](CC(C)C)NC(=O)CNC(=O)[C@H](CCC(=O)O)NC2=O`: the pIC50 in assay [2] is 8.96. In turn, `C#CC[C@H](N)C(=O)N[C@@H](Cc1ccc(O)cc1)C(=O)N[C@H]1CSSC[C@@H]2NC(=O)[C@@H]3CSSC[C@@H](C(=O)N[C@@H](CCCNC(=N)N)C(=O)N[C@@H](CCCCN)C(=O)N[C@@H](CCC(=O)O)C(=O)N[C@H](C(N)=O)[C@@H](C)CC)NC(=O)[C@H](CCc4ccccc4)NC(=O)[C@H](CC(C)C)NC(=O)[C@H](CCCCN)NC(=O)[C@H](CSSC[C@H](NC(=O)[C@H]([C@@H](C)O)NC(=O)[C@H](Cc4c[nH]c5ccccc45)NC(=O)[C@H](CCCC)NC(=O)[C@H](Cc4c[nH]c5ccccc45)NC(=O)[C@H](CCCCN)NC(=O)[C@H](CCC(N)=O)NC1=O)C(=O)N[C@@H](CC(=O)O)C(=O)N[C@@H](CO)C(=O)N[C@@H](CCCCN)C(=O)N[C@@H](CCCNC(=N)N)C(=O)N[C@@H](C)C(=O)N3)NC(=O)[C@H](CCCNC(=N)N)NC(=O)[C@H](CC(C)C)NC(=O)CNC(=O)[C@H](CCC(=O)O)NC2=O` showed a pIC50 in assay [2] below 6.00.

In turn, `C#CC[C@H](NC(=O)[C@@H](N)CCCCN)C(=O)N[C@H]1CSSC[C@@H]2NC(=O)[C@@H]3CSSC[C@@H](C(=O)N[C@@H](CCCNC(=N)N)C(=O)N[C@@H](CCCCN)C(=O)N[C@@H](CCC(=O)O)C(=O)N[C@H](C(N)=O)[C@@H](C)CC)NC(=O)[C@H](Cc4c[nH]c5ccc(Br)cc45)NC(=O)[C@H](CC(C)C)NC(=O)[C@H](CCCCN)NC(=O)[C@H](CSSC[C@H](NC(=O)[C@H]([C@@H](C)O)NC(=O)[C@H](Cc4c[nH]c5ccccc45)NC(=O)[C@H](CCCC)NC(=O)[C@H](Cc4c[nH]c5ccccc45)NC(=O)[C@H](CCCCN)NC(=O)[C@H](CCC(N)=O)NC1=O)C(=O)N[C@@H](CC(=O)O)C(=O)N[C@@H](CO)C(=O)N[C@@H](CCCCN)C(=O)N[C@@H](CCCNC(=N)N)C(=O)N[C@@H](C)C(=O)N3)NC(=O)[C@H](CCCNC(=N)N)NC(=O)[C@H](CC(C)C)NC(=O)CNC(=O)[C@H](CCC(=O)O)NC2=O` had a negative logarithm of the IC50 (pIC50) in assay [2] of 8.24.

Turning to `C#CC[C@H](N)C(=O)N[C@@H](Cc1ccc(O)cc1)C(=O)N[C@H]1CSSC[C@@H]2NC(=O)[C@@H]3CSSC[C@@H](C(=O)N[C@@H](CCCNC(=N)N)C(=O)N[C@@H](CCCCN)C(=O)N[C@@H](CCC(=O)O)C(=O)N[C@H](C(N)=O)[C@@H](C)CC)NC(=O)[C@H](Cc4ccccc4)NC(=O)[C@H](CC(C)C)NC(=O)[C@H](CCCCN)NC(=O)[C@H](CSSC[C@H](NC(=O)[C@H]([C@@H](C)O)NC(=O)[C@H](Cc4c[nH]c5ccccc45)NC(=O)[C@H](CCCC)NC(=O)[C@H](Cc4c[nH]c5ccccc45)NC(=O)[C@H](CCCCN)NC(=O)[C@H](CCC(N)=O)NC1=O)C(=O)N[C@@H](CC(=O)O)C(=O)N[C@@H](CO)C(=O)N[C@@H](CCCCN)C(=O)N[C@@H](CCCNC(=N)N)C(=O)N[C@@H](C)C(=O)N3)NC(=O)[C@H](CCCNC(=N)N)NC(=O)[C@H](CC(C)C)NC(=O)CNC(=O)[C@H](CCC(=O)O)NC2=O`, the pIC50 in assay [2] was 7.82. `C#CC[C@H](N)C(=O)N[C@@H](Cc1ccc(O)cc1)C(=O)N[C@H]1CSSC[C@@H]2NC(=O)[C@@H]3CSSC[C@@H](C(=O)N[C@@H](CCCNC(=N)N)C(=O)N[C@@H](CCCCN)C(=O)N[C@@H](CCC(=O)O)C(=O)N[C@@H](Cc4ccccc4)C(N)=O)NC(=O)[C@H](Cc4c[nH]c5ccc(Br)cc45)NC(=O)[C@H](CC(C)C)NC(=O)[C@H](CCCCN)NC(=O)[C@H](CSSC[C@H](NC(=O)[C@H]([C@@H](C)O)NC(=O)[C@H](Cc4c[nH]c5ccccc45)NC(=O)[C@H](CCCC)NC(=O)[C@H](Cc4c[nH]c5ccccc45)NC(=O)[C@H](CCCCN)NC(=O)[C@H](CCC(N)=O)NC1=O)C(=O)N[C@@H](CC(=O)O)C(=O)N[C@@H](CO)C(=O)N[C@@H](CCCCN)C(=O)N[C@@H](CCCNC(=N)N)C(=O)N[C@@H](C)C(=O)N3)NC(=O)[C@H](CCCNC(=N)N)NC(=O)[C@H](CC(C)C)NC(=O)CNC(=O)[C@H](CCC(=O)O)NC2=O`: in assay [2], the pIC50 was 8.96. Compound `C#CC[C@H](N)C(=O)N[C@@H](Cc1ccc(O)cc1)C(=O)N[C@H]1CSSC[C@@H]2NC(=O)[C@@H]3CSSC[C@@H](C(=O)N[C@@H](CCCNC(=N)N)C(=O)N[C@@H](CCCCN)C(=O)N[C@@H](CCC(=O)O)C(=O)N[C@H](C(N)=O)[C@@H](C)CC)NC(=O)[C@H](Cc4c[nH]c5cc(C)ccc45)NC(=O)[C@H](CC(C)C)NC(=O)[C@H](CCCCN)NC(=O)[C@H](CSSC[C@H](NC(=O)[C@H]([C@@H](C)O)NC(=O)[C@H](Cc4c[nH]c5ccccc45)NC(=O)[C@H](CCCC)NC(=O)[C@H](Cc4c[nH]c5ccccc45)NC(=O)[C@H](CCCCN)NC(=O)[C@H](CCC(N)=O)NC1=O)C(=O)N[C@@H](CC(=O)O)C(=O)N[C@@H](CO)C(=O)N[C@@H](CCCCN)C(=O)N[C@@H](CCCNC(=N)N)C(=O)N[C@@H](C)C(=O)N3)NC(=O)[C@H](CCCNC(=N)N)NC(=O)[C@H](CC(C)C)NC(=O)CNC(=O)[C@H](CCC(=O)O)NC2=O` gave a pIC50 in assay [2] of 7.72.
